Source: publication PMC12728616, “Regioselective Glycosylation of Fluorine-18-Labeled Sorbitol for Enhanced Bacterial Detection In Vivo Using PET” (JACS Au, 2025)

Experiments:
[1] = tested on: MRSA; assay: PET/CT in MRSA myositis murine model; assay type: in vivo, mice; details: for ratio of live/heat-killed S. aureus inoculated sites, in vivo: PET 80 min postinjection (mid time)
Experimental: We next compared [^18F]-FNT and [^18F]-FMT PET in a S. aureus myositis model. […] To compare the in vivo detection sensitivity of [^18F]-FNT and [^18F]-FMT in a MRSA myositis model, we injected the left deltoid with live MRSA and the right deltoid with 10x heat-killed MRSA, respectively (Figure B).
All animal procedures were conducted in accordance with UCSF institutional guidelines and were approved by the Institutional Animal Care and Use Committee (IACUC). Female CBA/J mice (9 and 11 weeks old) were used for the study. Pulmonary infection and bacterial myositis models were established based on previously published protocols. , For pulmonary infection, 50 μL of K. pneumoniae (5 × 10^6 CFU) or 10× heat-killed K. pneumoniae were administered intranasally under anesthesia 24 h prior to imaging using PET. After PET scans, infected lungs were homogenized in PBS and plated on LB agar. Plates were incubated overnight at 37 °C to quantify the bacterial burden. […] Immediately following all imaging studies, target tissues were harvested, and radioactivity was measured using a gamma counter.
(§1) μPET/CT imaging was conducted using a nanoScan μPET/CT instrument (PET123S/CT1512, Mediso). Mice were anesthetized with 2% isoflurane/oxygen for intravenous administration of ^18F-tracers (∼5 MBq in 150 μL) via tail vein and maintained during data acquisition. PET data of uninfected mice were acquired in the list mode for 90 min, starting immediately after ^18F-tracer administration, followed by a CT scan. The PET data were reconstructed into three-dimensional volumes and coregistered with CT images using manufacturer-provided software in 53 dynamic frames (15 × 2 s, 6 × 5 s, 6 × 10 s, 4 × 30 s, 6 × 30 s, and 16 × 300 s). PET data of infected mice were acquired for 20 min, starting at 70 min postinjection of ^18F-tracer (mid time 80 min), followed by a CT scan. The list mode PET data were reconstructed into three-dimensional volumes in a single static frame. All PET scans were corrected for ^18F decay, dead time, and random coincidences and reconstructed into a 160 × 160 × 184 matrix with voxel size 0.8 mm using a three-dimensional ordered subject expectation maximization (OSEM) algorithm (40 iterations, 1 subset). Both attenuation and scatter corrections were applied to PET reconstructions using the coregistered CT. ROIs were drawn manually around the brain, lungs, liver, kidney, and urinary bladder using Amide software to generate image-derived TACs. For the estimation of blood pool radioactivity over time, ROIs were drawn on the left atrium. To estimate the plasma half-life of tracers, the TAC of the blood pool was fitted to a two-compartment model using a biexponential decay function: C t(t) = Ae ^–αt + Be ^ ‑βt , where C t(t) is the tracer concentration (% IDcc^–1) at time (t), A and B are the intercepts, and α and β are the distribution and elimination rate constants, respectively. , Quantitative uptake values are expressed as % IDcc^–1, representing the percent of the total injected dose per cubic centimeter. For the S. aureus myositis model, identical volume ROIs were drawn corresponding to the peak uptake of [^18F]-FNT at the live S. aureus inoculated site and heat-killed S. aureus inoculated site, respectively.

[2] = Dynamic PET/CT and ex vivo biodistribution in uninfected mice; details: for ex vivo residual activity in organs versus [18F]FDS: heart, lung, stomach, liver, intestine, kidney, muscle, after 90 min PET/CT; for peak uptake (Cmax) in bladder / peak uptake (Cmax) in kidneys / peak uptake (Cmax) in liver: dynamic PET 90 min; for elimination half-life (T1/2β) / plasma distribution half-life (T1/2α): blood pool TAC, two-compartment fit
Experimental: To assess the effect of [^18F]-FDS glycosylation on tissue uptake in vivo, we performed dynamic PET/CT scans for 90 min after the intravenous injection of [^18F]-FNT, [^18F]-FMT, and [^18F]-FDS in uninfected mice, followed by ex vivo analysis.
as §1

[3] = tested on: K. pneumoniae; assay: In vitro uptake of 18F-tracers by bacteria; assay type: cell-based, Klebsiella pneumoniae
Experimental: In vitro evaluation of ^18F-tracers was conducted according to our established procedure. Briefly, bacteria were incubated overnight at 37 °C, subcultured into a fresh medium at an initial OD600 of 0.05, and then allowed to reach the mid log phase (OD600 ∼ 0.4). The cultures were subsequently incubated with ^18F-tracers (final concentration: 0.1 MBq/mL) at 37 °C for 90 min. Subsequently, 300 μL aliquots of these cultures were centrifuged at 13,200 rpm for 6 min. The resulting pellets were washed with 300 μL of phosphate-buffered saline (PBS). The radioactivity of the pellets and supernatants was measured using a gamma counter. Uptake values were normalized to colony-forming units (CFUs).

[4] = In vitro stability in serum; assay type: in vitro ADME, human; details: up to 120 min at 37 °C
[5] = In vitro stability in serum; assay type: in vitro ADME, mouse; details: up to 120 min at 37 °C

Compound: OC[C@@H](O)[C@@H](O[C@H]1O[C@H](CO)[C@@H](O)[C@H](O)[C@H]1O)[C@H](O)[C@@H]([18F])CO [[18F]FMT, 2-deoxy-2-[18F]fluoro-D-maltitol]
- ratio of live/heat-killed S. aureus inoculated sites, in vivo ([1]; MRSA myositis): 6 fold
- ratio of live/heat-killed S. aureus inoculated sites, ex vivo ([1]; MRSA myositis, ex vivo analysis): 2.7 fold
- ex vivo residual activity in organs versus [18F]FDS [2]: significantly lower residual activity
- peak uptake (Cmax) in bladder ([2]; uninfected mice, i.v.): 562.7 ± 31.3 % IDcc^–1
- peak uptake (Cmax) in kidneys ([2]; uninfected mice, i.v.): 102.3 ± 8.4 % IDcc^–1
- peak uptake (Cmax) in liver ([2]; uninfected mice, i.v.): 17.7 ± 0.9 % IDcc^–1
- elimination half-life (T1/2β) ([2]; uninfected mice): 12.70 min
- plasma distribution half-life (T1/2α) ([2]; uninfected mice): 0.55 min
- in vitro uptake [3]: considerable uptake
- in vitro stability in human serum [4]: intact
- in vitro stability in mouse serum [5]: intact

Compound: OC[C@@H](O)[C@@H](O)[C@H](O[C@H]1O[C@H](CO)[C@@H](O)[C@H](O)[C@H]1O)[C@@H]([18F])CO [[18F]FNT, 2-deoxy-2-[18F]fluoro-D-nigeritol]
- ratio of live/heat-killed S. aureus inoculated sites, in vivo ([1]; MRSA myositis): ~28 fold
- uptake at heat-killed sites, dynamic PET ([1]; by 70 min postinjection): negligible
- PET signal at live MRSA inoculated deltoid, 10^4 CFU ([1]; inoculum 10^4 CFU, not significant vs uninfected controls (P = 0.2187)): negligible signals
- PET signal at sites inoculated with heat-killed MRSA ([1]; static PET/CT 80 min postinjection (mid time)): no detectable signal
- ex vivo residual activity in organs versus [18F]FDS [2]: significantly lower residual activity
- area under the curve (AUC0→90min) in bladder ([2]; uninfected mice, i.v.): 44418.3 ± 950.9 % IDcc^–1·min
- area under the curve (AUC0→90min) in liver ([2]; uninfected mice, i.v.): 105.7 ± 4.0 % IDcc^–1·min
- peak uptake (Cmax) in bladder ([2]; uninfected mice, i.v.): 606.8 ± 9.0 % IDcc^–1
- peak uptake (Cmax) in kidneys ([2]; uninfected mice, i.v.): 104.5 ± 14.2 % IDcc^–1
- peak uptake (Cmax) in liver ([2]; uninfected mice, i.v.): 19.2 ± 0.9 % IDcc^–1
- elimination half-life (T1/2β) ([2]; uninfected mice): 14.07 min
- plasma distribution half-life (T1/2α) ([2]; uninfected mice): 0.52 min
- in vitro uptake [3]: considerable uptake
- in vitro stability in human serum [4]: intact
- in vitro stability in mouse serum [5]: intact
